Experimental findings from ChEMBL document CHEMBL1671731, “Fluoroquinolone efflux by the plasmid-mediated multidrug efflux pump QacB variant QacBIII in Staphylococcus aureus” (2010) are described below.

Values after ≈ are worked out from the molar mass of the structure shown. Active and inactive are the calls of the source. No cut-off for these calls is given here.

The first test relates to Staphylococcus aureus. Kind of test: Antimicrobial activity against Staphylococcus aureus RDN1 harboring cloned pTZN10 containing cat and bla genes by agar dilution method. Format: functional.
With `CC(=O)NCC(=O)O.N=C(N)c1ccc(/N=N/Nc2ccc(C(=N)N)cc2)cc1` [DIMINAZEN ACETURATE], the minimal inhibitory concentration (MIC) worked out at 4 µg/mL.

Molecule `CC[n+]1c(-c2ccccc2)c2cc(N)ccc2c2ccc(N)cc21.[Br-]` [HOMIDIUM BROMIDE] gave an MIC of 1 µg/mL.

Consider `[Cl-].c1ccc([P+](c2ccccc2)(c2ccccc2)c2ccccc2)cc1` [TETRAPHENYLPHOSPHONIUM CHLORIDE], for which the minimal inhibitory concentration (MIC) turned out to be 4 µg/mL.

`N=C(NCCCCCCNC(=N)NC(=N)Nc1ccc(Cl)cc1)NC(=N)Nc1ccc(Cl)cc1.O=C(O)[C@H](O)[C@@H](O)[C@H](O)[C@H](O)CO` yielded an MIC of 0.25 µg/mL.

`O=C(O)c1cn(C2CC2)c2cc(N3CCNCC3)c(F)cc2c1=O` [CIPROFLOXACIN] yielded an MIC of 0.06 µg/mL (≈ 0.181 µM).

In a further test the test system is Staphylococcus aureus. Kind of test: Antimicrobial activity against Staphylococcus aureus RDN1 harboring cloned pTZ2396-encoded QacA gene by agar dilution method. Format: functional.
Molecule `CC(=O)NCC(=O)O.N=C(N)c1ccc(/N=N/Nc2ccc(C(=N)N)cc2)cc1` [DIMINAZEN ACETURATE] returned an MIC of 2050 µg/mL.

Molecule `CC[n+]1c(-c2ccccc2)c2cc(N)ccc2c2ccc(N)cc21.[Br-]` [HOMIDIUM BROMIDE] yielded an MIC of no less than 2050 µg/mL.

In turn, `[Cl-].c1ccc([P+](c2ccccc2)(c2ccccc2)c2ccccc2)cc1` [TETRAPHENYLPHOSPHONIUM CHLORIDE] gave a minimum inhibitory concentration (MIC) of 256 µg/mL.

Molecule `N=C(NCCCCCCNC(=N)NC(=N)Nc1ccc(Cl)cc1)NC(=N)Nc1ccc(Cl)cc1.O=C(O)[C@H](O)[C@@H](O)[C@H](O)[C@H](O)CO` showed an MIC of 2 µg/mL.

With `O=C(O)c1cn(C2CC2)c2cc(N3CCNCC3)c(F)cc2c1=O` [CIPROFLOXACIN], it took 0.13 µg/mL (≈ 0.392 µM) to inhibit growth (MIC).

The test system of the next test is Staphylococcus aureus. Kind of test: Antimicrobial activity against Staphylococcus aureus RDN1 harboring cloned pTZ2182-encoded QacBII gene by agar dilution method. Format: functional.
Consider `CC(=O)NCC(=O)O.N=C(N)c1ccc(/N=N/Nc2ccc(C(=N)N)cc2)cc1` [DIMINAZEN ACETURATE], for which the minimum inhibitory concentration (MIC) was determined as 512 µg/mL.

With `CC[n+]1c(-c2ccccc2)c2cc(N)ccc2c2ccc(N)cc21.[Br-]` [HOMIDIUM BROMIDE], the MIC was no less than 2050 µg/mL.

Turning to `[Cl-].c1ccc([P+](c2ccccc2)(c2ccccc2)c2ccccc2)cc1` [TETRAPHENYLPHOSPHONIUM CHLORIDE], 256 µg/mL was the least that counted as inhibitory (MIC).

The molecule `N=C(NCCCCCCNC(=N)NC(=N)Nc1ccc(Cl)cc1)NC(=N)Nc1ccc(Cl)cc1.O=C(O)[C@H](O)[C@@H](O)[C@H](O)[C@H](O)CO` returned an MIC of 4 µg/mL.

Turning to `O=C(O)c1cn(C2CC2)c2cc(N3CCNCC3)c(F)cc2c1=O` [CIPROFLOXACIN], the lowest concentration to inhibit growth (MIC) was 0.06 µg/mL (≈ 0.181 µM).

A further test has as its system Staphylococcus aureus. In words: Antimicrobial activity against Staphylococcus aureus RDN1 harboring cloned pTZ2162-encoded QacBIII gene by agar dilution method. The test is classed as functional.
Molecule `CC(=O)NCC(=O)O.N=C(N)c1ccc(/N=N/Nc2ccc(C(=N)N)cc2)cc1` [DIMINAZEN ACETURATE] yielded an MIC of 1020 µg/mL.

As to `CC[n+]1c(-c2ccccc2)c2cc(N)ccc2c2ccc(N)cc21.[Br-]` [HOMIDIUM BROMIDE], the MIC was found to be 256 µg/mL. Against the preceding molecule, the MIC is about 4-fold lower.

On to `[Cl-].c1ccc([P+](c2ccccc2)(c2ccccc2)c2ccccc2)cc1` [TETRAPHENYLPHOSPHONIUM CHLORIDE], for which 512 µg/mL was the least that counted as inhibitory (MIC).

As for `N=C(NCCCCCCNC(=N)NC(=N)Nc1ccc(Cl)cc1)NC(=N)Nc1ccc(Cl)cc1.O=C(O)[C@H](O)[C@@H](O)[C@H](O)[C@H](O)CO`, the lowest concentration to inhibit growth (MIC) was 2 µg/mL.

For `O=C(O)c1cn(C2CC2)c2cc(N3CCNCC3)c(F)cc2c1=O` [CIPROFLOXACIN], inhibition of growth (MIC) required 0.25 µg/mL (≈ 0.754 µM).

For a further test, the system named is Staphylococcus aureus. In words: Antimicrobial activity against Staphylococcus aureus RDN1 harboring cloned pTZ2162-encoded QacBIII E320A mutant gene by agar dilution method. The test is classed as functional.
The molecule `CC(=O)NCC(=O)O.N=C(N)c1ccc(/N=N/Nc2ccc(C(=N)N)cc2)cc1` [DIMINAZEN ACETURATE] had an MIC of 512 µg/mL.

Molecule `CC[n+]1c(-c2ccccc2)c2cc(N)ccc2c2ccc(N)cc21.[Br-]` [HOMIDIUM BROMIDE] had an MIC of no less than 2050 µg/mL.

The molecule `[Cl-].c1ccc([P+](c2ccccc2)(c2ccccc2)c2ccccc2)cc1` [TETRAPHENYLPHOSPHONIUM CHLORIDE] displayed a minimum inhibitory concentration (MIC) of 256 µg/mL.

In turn, `N=C(NCCCCCCNC(=N)NC(=N)Nc1ccc(Cl)cc1)NC(=N)Nc1ccc(Cl)cc1.O=C(O)[C@H](O)[C@@H](O)[C@H](O)[C@H](O)CO` had a minimum inhibitory concentration (MIC) of 4 µg/mL.

With `O=C(O)c1cn(C2CC2)c2cc(N3CCNCC3)c(F)cc2c1=O` [CIPROFLOXACIN], inhibition of growth (MIC) required 0.06 µg/mL (≈ 0.181 µM).

For another test, the system named is Staphylococcus aureus. Kind of test: Antimicrobial activity against Staphylococcus aureus RDN1 harboring cloned pTZ2238-encoded QacBIV gene by agar dilution method. The test is classed as functional.
Consider `CC(=O)NCC(=O)O.N=C(N)c1ccc(/N=N/Nc2ccc(C(=N)N)cc2)cc1` [DIMINAZEN ACETURATE], for which the lowest concentration to inhibit growth (MIC) was 2050 µg/mL.

Molecule `CC[n+]1c(-c2ccccc2)c2cc(N)ccc2c2ccc(N)cc21.[Br-]` [HOMIDIUM BROMIDE] showed an MIC of no less than 2050 µg/mL.

As to `[Cl-].c1ccc([P+](c2ccccc2)(c2ccccc2)c2ccccc2)cc1` [TETRAPHENYLPHOSPHONIUM CHLORIDE], the MIC stood at 512 µg/mL.

In turn, `N=C(NCCCCCCNC(=N)NC(=N)Nc1ccc(Cl)cc1)NC(=N)Nc1ccc(Cl)cc1.O=C(O)[C@H](O)[C@@H](O)[C@H](O)[C@H](O)CO` yielded an MIC of 4 µg/mL.

Take `O=C(O)c1cn(C2CC2)c2cc(N3CCNCC3)c(F)cc2c1=O` [CIPROFLOXACIN]: the minimum inhibitory concentration (MIC) worked out at 0.06 µg/mL (≈ 0.181 µM).

The subject of a further test is Staphylococcus aureus. Kind of test: Antimicrobial activity against Staphylococcus aureus RDN1 harboring cloned pTZ2238-encoded QacBIV A19T mutant gene by agar dilution method. The test is classed as functional.
In the case of `CC(=O)NCC(=O)O.N=C(N)c1ccc(/N=N/Nc2ccc(C(=N)N)cc2)cc1` [DIMINAZEN ACETURATE], the MIC was determined as 2050 µg/mL.

In turn, `CC[n+]1c(-c2ccccc2)c2cc(N)ccc2c2ccc(N)cc21.[Br-]` [HOMIDIUM BROMIDE] had an MIC of no less than 2050 µg/mL.

Take `[Cl-].c1ccc([P+](c2ccccc2)(c2ccccc2)c2ccccc2)cc1` [TETRAPHENYLPHOSPHONIUM CHLORIDE]: 512 µg/mL was the least that counted as inhibitory (MIC).

Regarding `N=C(NCCCCCCNC(=N)NC(=N)Nc1ccc(Cl)cc1)NC(=N)Nc1ccc(Cl)cc1.O=C(O)[C@H](O)[C@@H](O)[C@H](O)[C@H](O)CO`, inhibition of growth (MIC) required 4 µg/mL. This MIC lies about 130-fold lower than the previous one.

The next test concerns Staphylococcus aureus. Kind of test: Antimicrobial activity against Staphylococcus aureus RDN1 harboring cloned pTZ2238-encoded QacBIV S151I mutant gene by agar dilution method. Format: functional.
With `CC(=O)NCC(=O)O.N=C(N)c1ccc(/N=N/Nc2ccc(C(=N)N)cc2)cc1` [DIMINAZEN ACETURATE], the MIC came out at 2050 µg/mL.

`CC[n+]1c(-c2ccccc2)c2cc(N)ccc2c2ccc(N)cc21.[Br-]` [HOMIDIUM BROMIDE] had a minimum inhibitory concentration (MIC) of no less than 2050 µg/mL.

`[Cl-].c1ccc([P+](c2ccccc2)(c2ccccc2)c2ccccc2)cc1` [TETRAPHENYLPHOSPHONIUM CHLORIDE]: the MIC was determined as 512 µg/mL.

`N=C(NCCCCCCNC(=N)NC(=N)Nc1ccc(Cl)cc1)NC(=N)Nc1ccc(Cl)cc1.O=C(O)[C@H](O)[C@@H](O)[C@H](O)[C@H](O)CO` showed an MIC of 4 µg/mL. Against the preceding molecule, the MIC is about 130-fold lower.

The subject of another test is Staphylococcus aureus. In words: Antimicrobial activity against Staphylococcus aureus RDN1 harboring cloned pTZ2238-encoded QacBIV A184V mutant gene by agar dilution method. Format: functional.
Molecule `CC(=O)NCC(=O)O.N=C(N)c1ccc(/N=N/Nc2ccc(C(=N)N)cc2)cc1` [DIMINAZEN ACETURATE] yielded an MIC of 2050 µg/mL.

For `CC[n+]1c(-c2ccccc2)c2cc(N)ccc2c2ccc(N)cc21.[Br-]` [HOMIDIUM BROMIDE], the minimum inhibitory concentration (MIC) is no less than 2050 µg/mL.

`[Cl-].c1ccc([P+](c2ccccc2)(c2ccccc2)c2ccccc2)cc1` [TETRAPHENYLPHOSPHONIUM CHLORIDE] gave an MIC of 512 µg/mL.

Regarding `N=C(NCCCCCCNC(=N)NC(=N)Nc1ccc(Cl)cc1)NC(=N)Nc1ccc(Cl)cc1.O=C(O)[C@H](O)[C@@H](O)[C@H](O)[C@H](O)CO`, 4 µg/mL was the least that counted as inhibitory (MIC).

Another test concerns Staphylococcus aureus. Kind of test: Antimicrobial activity against Staphylococcus aureus RDN1 harboring cloned pTZ2238-encoded QacBIV E377G mutant gene by agar dilution method. Format: functional.
For `CC(=O)NCC(=O)O.N=C(N)c1ccc(/N=N/Nc2ccc(C(=N)N)cc2)cc1` [DIMINAZEN ACETURATE], the MIC is 512 µg/mL.

The molecule `CC[n+]1c(-c2ccccc2)c2cc(N)ccc2c2ccc(N)cc21.[Br-]` [HOMIDIUM BROMIDE] displayed an MIC of no less than 2050 µg/mL.

With `[Cl-].c1ccc([P+](c2ccccc2)(c2ccccc2)c2ccccc2)cc1` [TETRAPHENYLPHOSPHONIUM CHLORIDE], the minimal inhibitory concentration (MIC) was determined as 512 µg/mL.

In turn, `N=C(NCCCCCCNC(=N)NC(=N)Nc1ccc(Cl)cc1)NC(=N)Nc1ccc(Cl)cc1.O=C(O)[C@H](O)[C@@H](O)[C@H](O)[C@H](O)CO` registered an MIC of 2 µg/mL.

Test system in the next test: not listed separately
Kind of test: Activity of antiseptic efflux protein QacBIII expressed in Staphylococcus aureus RDN1 assessed as decrease in compound accumulation.
For `O=C(O)c1cn(C2CC2)c2cc(N3CCNCC3)c(F)cc2c1=O` [CIPROFLOXACIN], the result was Active.

Test system in another test: not listed separately
In words: Activity of antiseptic efflux protein QacBIII expressed in Staphylococcus aureus RDN1 assessed as decrease in compound accumulation in presence of CCCP.
Turning to `O=C(O)c1cn(C2CC2)c2cc(N3CCNCC3)c(F)cc2c1=O` [CIPROFLOXACIN], the outcome was inactive.
